In article PMC13195121, “A plasmid toolbox for the easy autodisplay of recombinant proteins and its optimization” (Communications Biology, 2026):
Structures can show the parent of a compound that is named as a salt.

Legend:
[1] = molecular target: T1, β-Gluc (β-glucosidase BglA LYTH) (Caldicellulosiruptor saccharolyticus, UniProt P10482); assay: whole-cell absorbance assay at […] nm, surface-displaying E. coli; assay type: cell-based; details: 5 mM pNPG; 0.1 M Na-citrate pH 6; 55 °C
T1 construct: His6 tag and fXa site
T1 sequence (P10482 whole entry): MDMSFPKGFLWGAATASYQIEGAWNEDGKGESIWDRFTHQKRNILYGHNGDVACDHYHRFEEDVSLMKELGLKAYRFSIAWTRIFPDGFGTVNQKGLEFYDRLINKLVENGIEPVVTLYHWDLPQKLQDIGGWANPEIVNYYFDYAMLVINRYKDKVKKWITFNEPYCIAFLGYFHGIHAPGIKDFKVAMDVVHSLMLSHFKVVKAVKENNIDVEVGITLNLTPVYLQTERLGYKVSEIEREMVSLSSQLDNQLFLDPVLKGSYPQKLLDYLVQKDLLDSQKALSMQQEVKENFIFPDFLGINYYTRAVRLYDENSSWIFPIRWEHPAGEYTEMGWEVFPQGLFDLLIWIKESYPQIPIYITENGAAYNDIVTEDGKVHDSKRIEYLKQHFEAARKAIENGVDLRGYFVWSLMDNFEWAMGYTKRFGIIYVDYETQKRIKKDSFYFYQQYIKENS

[2] = molecular target: T2, laccase CotA (Heyndrickxia coagulans, UniProt A0AAN0WB15); assay: whole-cell absorbance assay at […] nm, surface-displaying P. putida; assay type: cell-based; details: 0.1 M Na-acetate pH 5.6; 30 °C; cells grown with CuCl2
T2 construct: gene SB48_HM08orf01352; N-terminal His6 tag and fXa site; codon-optimized gene
T2 sequence (A0AAN0WB15 1-522): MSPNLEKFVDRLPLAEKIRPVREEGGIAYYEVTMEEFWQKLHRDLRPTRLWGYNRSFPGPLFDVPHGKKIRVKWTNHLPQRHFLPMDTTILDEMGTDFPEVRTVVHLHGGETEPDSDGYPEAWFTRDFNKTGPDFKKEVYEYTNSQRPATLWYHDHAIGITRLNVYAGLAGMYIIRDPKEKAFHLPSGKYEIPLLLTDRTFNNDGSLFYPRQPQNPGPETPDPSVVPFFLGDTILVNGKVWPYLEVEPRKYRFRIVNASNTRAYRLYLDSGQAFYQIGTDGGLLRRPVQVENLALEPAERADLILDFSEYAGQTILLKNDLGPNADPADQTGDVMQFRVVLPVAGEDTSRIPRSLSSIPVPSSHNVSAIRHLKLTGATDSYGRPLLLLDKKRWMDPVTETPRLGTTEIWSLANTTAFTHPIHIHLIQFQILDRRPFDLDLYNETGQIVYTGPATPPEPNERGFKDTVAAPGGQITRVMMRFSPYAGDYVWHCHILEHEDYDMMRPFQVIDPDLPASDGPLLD

| Compound | whole-cell absorbance assay at 405 nm, surface-displaying E. coli [1] | whole-cell absorbance assay at 420 nm, surface-displaying P. putida [2] |
| --- | --- | --- |
| O=[N+]([O-])c1ccc(O[C@@H]2O[C@H](CO)[C@@H](O)[C@H](O)[C@H]2O)cc1 [4-nitrophenyl-β-D-glucopyranoside] | activity assay with 4-nitrophenyl-β-D-glucopyranoside (pNPG) as substrate |  |
| CCn1c(=NN=c2sc3cc(S(=O)(=O)O)ccc3n2CC)sc2cc(S(=O)(=O)O)ccc21 [ABTS, 2,2’-Azino-bis [3-ethylbenzothiazoline-6-sulfonic acid]-diammonium salt] |  | The substrate ABTS is converted by the laccase to ABTS^•+ |
